In patent US9034909B2, “Use of organic compound for the treatment of Noonan Syndrome” (Novartis AG, priority 2011, dated 2015):

Target: MEK1 (Homo sapiens, UniProt Q02750)
Assay: isolated enzyme assay, MEK1 inhibition
Format: biochemical
Conditions: read-out: 50% inhibition (IC50) value
From the text: The compound of Formula (I) is 6-(4-bromo-2-fluorophenylamino)-7-fluoro-3-methyl-3H-benzoimidazole-5-carboxylic acid (2-hydroxyethoxy)-amide (COMPOUND A). The compound of Formula (I) is described in PCT Application No. WO 03/077914, which is hereby incorporated by reference in its entirety hereto, and methods for its preparation have been described, for example, in Example 18 therein.

Sequence of MEK1 (Q02750 whole entry, species assumed): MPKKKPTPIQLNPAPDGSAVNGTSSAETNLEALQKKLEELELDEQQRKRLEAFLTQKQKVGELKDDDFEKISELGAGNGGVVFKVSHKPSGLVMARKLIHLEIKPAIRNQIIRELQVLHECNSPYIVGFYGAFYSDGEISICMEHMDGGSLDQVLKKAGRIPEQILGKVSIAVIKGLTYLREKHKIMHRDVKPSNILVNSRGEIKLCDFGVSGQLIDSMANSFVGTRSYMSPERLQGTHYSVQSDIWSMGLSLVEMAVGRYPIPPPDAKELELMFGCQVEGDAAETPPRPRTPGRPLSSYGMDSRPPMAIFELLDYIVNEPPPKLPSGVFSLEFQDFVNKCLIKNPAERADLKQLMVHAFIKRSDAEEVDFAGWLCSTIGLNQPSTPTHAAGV

IC50: 12 nM
SMILES: Cn1cnc2c(F)c(Nc3ccc(Br)cc3F)c(C(=O)NOCCO)cc21 [COMPOUND A, 6-(4-bromo-2-fluorophenylamino)-7-fluoro-3-methyl-3H-benzoimidazole-5-carboxylic acid (2-hydroxyethoxy)-amide]
